According to publication PMC3551771, “Pharmacological modulation of histone demethylase activity by a small molecule isolated from subcritical water extracts of Sasa senanensis leaves prolongs the lifespan of Drosophila melanogaster” (BMC Complementary and Alternative Medicine, 2012):

What was measured:
Assay in all cases: fluorogenic JMJD demethylase assay kit, biotinylated histone H3 peptide substrate
Format in all cases: biochemical
JMJD2A = target: T1, JMJD2A (Homo sapiens, UniProt O75164)
T1 construct: gene KDM4A
T1 sequence (O75164 2-1064): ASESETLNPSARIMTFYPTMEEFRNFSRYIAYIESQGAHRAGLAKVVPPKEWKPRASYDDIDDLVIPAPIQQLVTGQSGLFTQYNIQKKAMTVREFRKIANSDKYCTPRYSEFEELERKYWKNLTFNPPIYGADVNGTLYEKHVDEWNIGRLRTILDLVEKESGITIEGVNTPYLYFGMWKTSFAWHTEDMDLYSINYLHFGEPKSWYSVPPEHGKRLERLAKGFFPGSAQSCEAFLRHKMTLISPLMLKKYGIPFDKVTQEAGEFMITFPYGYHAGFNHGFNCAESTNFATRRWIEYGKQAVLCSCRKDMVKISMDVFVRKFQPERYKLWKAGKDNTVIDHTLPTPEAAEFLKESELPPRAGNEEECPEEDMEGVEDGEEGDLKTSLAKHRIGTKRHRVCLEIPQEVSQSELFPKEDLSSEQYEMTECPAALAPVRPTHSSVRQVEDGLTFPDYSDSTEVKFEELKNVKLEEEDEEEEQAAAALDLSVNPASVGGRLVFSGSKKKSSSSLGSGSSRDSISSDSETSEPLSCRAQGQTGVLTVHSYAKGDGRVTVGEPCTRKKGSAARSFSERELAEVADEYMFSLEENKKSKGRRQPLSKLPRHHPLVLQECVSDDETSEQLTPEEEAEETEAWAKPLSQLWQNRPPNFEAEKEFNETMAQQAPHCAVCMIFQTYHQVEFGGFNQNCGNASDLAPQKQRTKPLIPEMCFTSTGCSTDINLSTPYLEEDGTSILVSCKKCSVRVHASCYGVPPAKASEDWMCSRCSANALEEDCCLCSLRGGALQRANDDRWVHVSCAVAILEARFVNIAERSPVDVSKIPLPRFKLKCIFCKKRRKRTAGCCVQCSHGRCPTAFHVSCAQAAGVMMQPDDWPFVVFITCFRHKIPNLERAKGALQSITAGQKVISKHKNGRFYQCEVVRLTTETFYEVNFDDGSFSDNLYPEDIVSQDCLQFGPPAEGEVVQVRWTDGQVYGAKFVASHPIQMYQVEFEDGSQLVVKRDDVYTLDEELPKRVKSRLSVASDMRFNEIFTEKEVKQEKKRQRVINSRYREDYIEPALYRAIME

JMJD2B = target: T2, JMJD2B (Homo sapiens, UniProt O94953)
T2 construct: gene KDM4B
T2 sequence (O94953 1-1096): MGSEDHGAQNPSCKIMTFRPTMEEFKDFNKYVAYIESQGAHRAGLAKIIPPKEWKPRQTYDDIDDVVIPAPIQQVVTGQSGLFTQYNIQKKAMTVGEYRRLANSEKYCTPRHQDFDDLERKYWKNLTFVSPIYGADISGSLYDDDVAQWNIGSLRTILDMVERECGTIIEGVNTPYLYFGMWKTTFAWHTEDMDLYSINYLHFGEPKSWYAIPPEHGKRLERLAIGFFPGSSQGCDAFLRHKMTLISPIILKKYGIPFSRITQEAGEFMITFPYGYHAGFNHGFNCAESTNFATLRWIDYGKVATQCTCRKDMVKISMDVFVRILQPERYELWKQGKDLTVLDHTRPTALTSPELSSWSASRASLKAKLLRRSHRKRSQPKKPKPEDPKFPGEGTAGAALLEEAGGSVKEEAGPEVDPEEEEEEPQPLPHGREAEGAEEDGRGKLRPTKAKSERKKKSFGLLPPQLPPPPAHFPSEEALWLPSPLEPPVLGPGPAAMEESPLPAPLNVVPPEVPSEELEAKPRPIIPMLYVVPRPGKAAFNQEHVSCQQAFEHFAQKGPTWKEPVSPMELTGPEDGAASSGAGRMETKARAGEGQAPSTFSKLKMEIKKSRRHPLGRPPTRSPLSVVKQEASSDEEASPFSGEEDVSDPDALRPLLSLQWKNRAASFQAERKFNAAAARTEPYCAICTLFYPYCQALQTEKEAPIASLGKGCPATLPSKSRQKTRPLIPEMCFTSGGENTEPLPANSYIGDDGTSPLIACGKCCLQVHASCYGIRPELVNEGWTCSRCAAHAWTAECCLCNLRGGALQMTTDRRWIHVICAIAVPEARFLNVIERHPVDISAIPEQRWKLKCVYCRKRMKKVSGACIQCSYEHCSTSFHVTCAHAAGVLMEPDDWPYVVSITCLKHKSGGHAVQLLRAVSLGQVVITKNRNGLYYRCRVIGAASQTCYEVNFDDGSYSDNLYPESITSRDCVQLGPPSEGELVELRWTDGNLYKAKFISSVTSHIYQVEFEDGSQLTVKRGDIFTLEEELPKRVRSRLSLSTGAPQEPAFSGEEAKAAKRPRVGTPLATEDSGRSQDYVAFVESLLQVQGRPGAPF
Description: IC50 values are mean ± SEM

JMJD2C = target: T3, JMJD2C (Homo sapiens, UniProt Q9H3R0)
T3 construct: gene KDM4C
T3 sequence (Q9H3R0 1-1056): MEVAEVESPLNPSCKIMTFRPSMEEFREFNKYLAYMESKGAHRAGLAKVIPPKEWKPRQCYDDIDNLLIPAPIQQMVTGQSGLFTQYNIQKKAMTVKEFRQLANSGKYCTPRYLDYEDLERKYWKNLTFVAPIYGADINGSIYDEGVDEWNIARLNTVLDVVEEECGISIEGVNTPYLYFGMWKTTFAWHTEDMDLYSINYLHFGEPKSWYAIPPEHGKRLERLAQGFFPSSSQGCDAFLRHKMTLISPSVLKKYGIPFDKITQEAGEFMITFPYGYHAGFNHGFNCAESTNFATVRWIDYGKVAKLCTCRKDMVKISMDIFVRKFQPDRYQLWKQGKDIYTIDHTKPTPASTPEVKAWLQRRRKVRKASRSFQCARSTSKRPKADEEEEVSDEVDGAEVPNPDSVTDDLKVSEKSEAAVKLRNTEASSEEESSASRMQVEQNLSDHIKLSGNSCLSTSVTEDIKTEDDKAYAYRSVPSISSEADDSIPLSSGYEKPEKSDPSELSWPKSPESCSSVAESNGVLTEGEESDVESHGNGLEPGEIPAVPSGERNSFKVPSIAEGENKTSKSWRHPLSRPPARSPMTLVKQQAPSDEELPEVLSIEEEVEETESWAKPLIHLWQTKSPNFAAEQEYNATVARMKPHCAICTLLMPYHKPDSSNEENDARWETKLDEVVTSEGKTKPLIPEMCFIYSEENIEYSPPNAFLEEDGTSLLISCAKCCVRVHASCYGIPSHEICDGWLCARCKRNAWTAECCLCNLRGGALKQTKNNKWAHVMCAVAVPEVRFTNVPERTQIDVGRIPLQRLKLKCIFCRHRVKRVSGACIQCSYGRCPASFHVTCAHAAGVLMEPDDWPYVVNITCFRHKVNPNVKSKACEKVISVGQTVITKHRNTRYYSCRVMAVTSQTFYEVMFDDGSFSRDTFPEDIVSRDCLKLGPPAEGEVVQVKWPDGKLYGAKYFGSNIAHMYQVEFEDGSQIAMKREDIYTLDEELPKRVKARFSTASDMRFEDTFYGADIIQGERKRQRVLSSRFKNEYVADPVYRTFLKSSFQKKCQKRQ

IC50 (JMJD2A): 11.6 ± 1.5 µM
IC50 (JMJD2B): 38.6 ± 10 µM
IC50 (JMJD2C): 33.7 ± 7.8 µM
Structure (SMILES): O=Cc1ccc(O)c(O)c1 [PA, 3,4-dihydroxybenzaldehyde]
